In patent publication US12336977B2, “Nitenin analogue compounds and their use in the treatment of chronic and acute pain” (SEA4US-BIOTECNOLOGIA E RECURSOS MARINHOS, LDA., priority 2019, dated 2025):
pIC50: −log10 of the molar value. Entries after “also recorded” stand apart in the source; their conditions may differ.

Assays:
[1] = system: COP rats (CFA injection in the whisker pad of Wistar rats); assay: chronic orofacial pain (COP) rat model, von Frey filaments; format: in vivo; conditions: I.V. 1 μg/mL of blood
Excerpt: Values refer to the mechanical sensitivity to face stimulation (whiskers region) using calibrated von Frey Filaments, and consequently reflecting hyperalgesia when hypersensitive (black filled markers—ipsilateral, injured face-side; Open markers—contralateral, uninjured face-side). Dotted line refers to the average value of the ipsilateral face prior to the CFA injection. a) Induction of the model showing that 3 days after operation, the mechanical sensitivity of the ipsilateral face-sides increase markedly, whereas the one associated with the contralateral leg maintains relatively unchanged, similar to baseline values. […]
For efficacy studies, nociception was assessed in all animals from all pain models by regular behavioural monitoring, by quantifying the sensitivity to mechanical stimuli with Von Frey filaments, and consequently reflecting hyperalgesia when hypersensitive. […] Intraperitoneal administration was tested in CFA rats (23 days after CFA injection), with 10 times the nitenin quantity administered by I.V. injections. […] Oral administration of nitenin through stomach gavages (endogastric), with 100 times the quantity administered by I.V. injections, was tested in CCI rats (31 days after surgery). […]

[2] = system: isolated rat atria and isolated rat ventricles; assay: ex vivo rat heart preparations; conditions: up to 10 μM
[3] = molecular target: T1, hKv1.3 (Homo sapiens, UniProt P22001); assay: voltage-clamp of K+ currents in CHO-K1 cells expressing hKv1.3; format: cell-based; conditions: inhibition measured at end of 1000 ms pulse, read-out: IC50 of K+ current inhibition, hKv1.3
T1 construct: expressed in transfected cells; host or cells: CHO-K1
T1 sequence (P22001 whole entry): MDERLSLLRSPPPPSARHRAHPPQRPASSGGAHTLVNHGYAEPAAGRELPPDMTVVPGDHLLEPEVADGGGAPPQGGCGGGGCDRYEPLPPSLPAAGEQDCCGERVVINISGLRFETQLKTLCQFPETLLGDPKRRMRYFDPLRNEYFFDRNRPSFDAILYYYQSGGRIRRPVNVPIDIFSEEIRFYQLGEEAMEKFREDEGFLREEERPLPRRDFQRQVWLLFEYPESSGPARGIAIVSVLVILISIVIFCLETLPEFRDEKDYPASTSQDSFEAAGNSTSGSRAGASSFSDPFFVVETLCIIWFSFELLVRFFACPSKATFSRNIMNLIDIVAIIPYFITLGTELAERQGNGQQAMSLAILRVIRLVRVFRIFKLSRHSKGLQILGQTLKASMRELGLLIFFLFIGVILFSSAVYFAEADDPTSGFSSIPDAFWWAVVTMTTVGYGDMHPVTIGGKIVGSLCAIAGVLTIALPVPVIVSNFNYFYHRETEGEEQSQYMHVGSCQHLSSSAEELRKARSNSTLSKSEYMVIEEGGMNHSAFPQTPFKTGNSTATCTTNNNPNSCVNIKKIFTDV
Excerpt: As measure of Ifast, peak current was used, whereas, as a measure of Islow, the current value was obtained at the end of the command pulse (see FIG. 1). Values are expressed as mean±S.E.M. For Islow, a dual phase relationship can be observed. […] Kv1.3 channel is the most sensitive channel (around 6-fold more sensitive in comparison to the “next most sensitive one”, the Kv1.2) Kv1.2, Kv1.1 and Kv1.6 show similar, intermediate sensitivities to nitenin. In opposition, Kv1.4 is the less sensitive (˜31 times less sensitive).
Additionally, drug sensitivity to different voltage-activated channels was assessed by studying the drug effect on currents recorded from chinese hamster ovary (CHO) cells stably transfected with different human Kv channel subunits (Kv1.1, Kv1.2, Kv1.3, Kv1.4 and Kv1.6).
The higher sensitivity of nitenin to Islow (rather than Ifast) and the nature of the nitenin sensitive current (see nitenin sensitive current in FIG. 1.b) urged to understand which K^+ channel(s) do underline Islow. By considering which Kv channel subunits are known to be expressed in DRG, and the biophysical nature of the nitenin-sensitive current, nitenin was tested on whole-cell currents recorded from CHO cells expressing hKv1.1, hKv1.2, hKv1.3, hKv1.4 and hKv1.6. […] Current inhibition was measured at the end of the 1000 ms pulse.

In the case of C/C(=C\C1C/C(=C/CCc2ccoc2)C(=O)O1)CCCc1ccoc1 (centres unmarked) [nitenin], the “mechanical sensitivity at the whisker pad region (von Frey)” value [1] was “reaching values not different to those obtained during baseline; also recorded: marked reduction of mechanical sensitivity”, the sinus heart rate ([2]; ex vivo) was “does not change” and the atrial inotropy ([2]; isolated rat atria) was “does not change”. For the same compound, the “right ventricular (RV) inotropy” value ([2]; isolated rat ventricles) was “does not change” and the pIC50 [3] was 6.72.
